Like-named read-outs stand apart in the source and are kept apart here.

For test [1], the target named is T1, NaV1.8 (Homo sapiens, UniProt Q9Y5Y9). Put plainly: Activity against NaV 1.8 channel (Table 4). The test is classed as cell-based. As for the experimental part: Compounds of the invention are useful as antagonists of voltage-gated sodium ion channels. Antagonist properties of test compounds were assessed as follows. Cells expressing the NaV of interest were placed into microtiter plates. After an incubation period, the cells were stained with fluorescent dyes sensitive to the transmembrane potential. The test compounds were added to the microtiter plate. The cells were stimulated with either a chemical or electrical means to evoke a NaV dependent membrane potential change from unblocked channels, which was detected and measured with trans-membrane potential-sensitive dyes. Antagonists were detected as a decreased membrane potential response to the stimulus. The optical membrane potential assay utilized voltage-sensitive FRET sensors described by Gonzalez and Tsien (See, Gonzalez, J. E. and R. Y. Tsien (1995) “Voltage sensing by fluorescence resonance energy transfer in single cells” Biophys J 69(4): 1272-80, and Gonzalez, J. E. and R. Y. Tsien (1997) “Improved indicators of cell membrane potential that use fluorescence resonance energy transfer” Chem Biol 4(4): 269-77) in combination with instrumentation for measuring fluorescence changes such as the Voltage/Ion Probe Reader (VIPR®) (See, Gonzalez, J. E., K. Oades, et al. (1999) “Cell-based assays and instrumentation for screening ion-channel targets” Drug Discov Today 4(9): 431-439).
24 hours before the assay on VIPR, CHO cells endogenously expressing a NaV1.2 type voltage-gated NaV are seeded in 96-well poly-lysine coated plates at 60,000 cells per well. […] The cells are then incubated for 20-30 minutes. • 7) Once the incubation is complete, the cells are ready to be assayed on VIPR® with a sodium addback protocol. […]
Control responses are obtained by performing assays in the presence of a compound with the desired properties (positive control), such as tetracaine, and in the absence of pharmacological agents (negative control). Responses to the negative (N) and positive (P) controls are calculated as above. […]

The conditions of test [2]: in vivo; cited from earlier work.
The target in test [3] is T1, NaV1.8. Particulars: read-out: TTX IC50; cited from earlier work.

T1 sequence (Q9Y5Y9 whole entry, looked up): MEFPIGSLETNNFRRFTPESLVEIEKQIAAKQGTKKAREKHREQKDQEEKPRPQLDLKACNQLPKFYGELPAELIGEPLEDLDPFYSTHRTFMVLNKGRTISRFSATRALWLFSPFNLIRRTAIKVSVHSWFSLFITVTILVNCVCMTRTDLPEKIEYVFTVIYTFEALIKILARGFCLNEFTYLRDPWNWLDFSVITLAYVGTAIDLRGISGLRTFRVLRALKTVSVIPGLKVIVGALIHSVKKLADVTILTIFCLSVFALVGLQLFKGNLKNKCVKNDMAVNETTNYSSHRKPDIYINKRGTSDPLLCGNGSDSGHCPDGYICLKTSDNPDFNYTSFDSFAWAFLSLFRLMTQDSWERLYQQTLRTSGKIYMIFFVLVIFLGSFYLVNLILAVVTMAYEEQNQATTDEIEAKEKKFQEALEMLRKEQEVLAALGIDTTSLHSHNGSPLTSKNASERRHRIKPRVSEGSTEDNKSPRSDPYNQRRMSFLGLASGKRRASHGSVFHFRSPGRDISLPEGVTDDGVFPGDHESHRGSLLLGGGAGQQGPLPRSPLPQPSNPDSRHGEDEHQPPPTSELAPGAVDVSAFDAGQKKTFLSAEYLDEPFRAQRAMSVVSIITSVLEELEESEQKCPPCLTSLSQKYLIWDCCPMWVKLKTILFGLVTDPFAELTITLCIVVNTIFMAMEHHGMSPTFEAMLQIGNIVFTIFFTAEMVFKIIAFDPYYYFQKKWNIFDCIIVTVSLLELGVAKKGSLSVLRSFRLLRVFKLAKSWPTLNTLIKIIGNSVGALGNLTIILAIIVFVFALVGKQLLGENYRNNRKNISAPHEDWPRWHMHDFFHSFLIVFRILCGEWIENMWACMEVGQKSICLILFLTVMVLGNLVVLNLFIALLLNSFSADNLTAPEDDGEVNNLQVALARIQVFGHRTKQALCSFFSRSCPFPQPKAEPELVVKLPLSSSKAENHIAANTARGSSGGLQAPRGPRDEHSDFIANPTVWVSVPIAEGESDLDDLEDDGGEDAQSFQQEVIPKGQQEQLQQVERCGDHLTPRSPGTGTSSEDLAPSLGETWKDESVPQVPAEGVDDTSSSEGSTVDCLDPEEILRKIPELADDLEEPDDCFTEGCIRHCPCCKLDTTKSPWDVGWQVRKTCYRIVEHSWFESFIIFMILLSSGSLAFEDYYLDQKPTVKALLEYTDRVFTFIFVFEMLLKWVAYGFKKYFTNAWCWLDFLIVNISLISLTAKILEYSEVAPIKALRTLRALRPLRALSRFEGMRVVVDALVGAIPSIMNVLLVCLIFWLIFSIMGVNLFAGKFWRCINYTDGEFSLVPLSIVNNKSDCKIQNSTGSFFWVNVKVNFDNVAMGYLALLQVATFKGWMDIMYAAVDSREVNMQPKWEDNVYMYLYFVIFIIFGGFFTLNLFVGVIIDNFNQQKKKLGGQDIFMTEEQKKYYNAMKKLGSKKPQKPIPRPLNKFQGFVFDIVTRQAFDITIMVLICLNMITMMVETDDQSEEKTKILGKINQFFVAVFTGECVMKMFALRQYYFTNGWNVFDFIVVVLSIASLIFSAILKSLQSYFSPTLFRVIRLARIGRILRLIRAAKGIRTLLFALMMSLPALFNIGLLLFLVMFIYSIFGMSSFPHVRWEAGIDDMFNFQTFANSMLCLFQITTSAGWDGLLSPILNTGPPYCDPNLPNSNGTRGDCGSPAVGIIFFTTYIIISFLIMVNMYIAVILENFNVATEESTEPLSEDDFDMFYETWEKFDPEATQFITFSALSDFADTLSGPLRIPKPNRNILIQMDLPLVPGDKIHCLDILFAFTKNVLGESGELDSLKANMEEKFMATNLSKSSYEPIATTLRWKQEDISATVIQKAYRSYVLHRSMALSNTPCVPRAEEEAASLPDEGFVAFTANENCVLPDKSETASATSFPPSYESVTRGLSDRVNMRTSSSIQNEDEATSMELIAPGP

As to `CC(C)CC(O)C(=O)N1CCN(c2cccc(-c3ccccc3O)c2)CC1` (centres unmarked) [Compound 1, 2-hydroxy-1-[4-[3-(2-hydroxyphenyl)phenyl]piperazin-1-yl]-4-methyl-pentan-1-one], on NaV1.8 [1], the IC50 was over 15 µM.

In the case of `CC(C)C[C@@H](O)C(=O)N1CCN(c2cccc(-c3ccccc3C(F)F)c2)CC1` [Compound 2, 1-[4-[3-[2-(difluoromethyl)phenyl]phenyl]piperazin-1-yl]-2-hydroxy-4-methyl-pentan-1-one], the IC50 at NaV1.8 [1] is under 10 µM.

Take `CC(C)COC(=O)N1CCN(c2cccc(-c3ccccc3O)c2)CC1` [Compound 3, 4-[3-(2-hydroxyphenyl)phenyl]piperazine-1-carboxylic acid isobutyl ester]: the concentration for half-maximal inhibition (IC50) at NaV1.8 [1] is over 15 µM.

As to `NCC1(CC(=O)O)CCCCC1` [Gabapentin], the “share of patients in which it works” value in test [2] was 60%.

For `NC1=N[C@H](O)[C@H]2[C@H]3O[C@]4(O)O[C@@H]([C@@H](O)[C@@]2(N1)[C@@H]4O)[C@]3(O)CO` [TTX, tetrodotoxin], on NaV1.8 [3], the IC50 was over 50 µM.

(Values after patent publication US7705002B2, “Biaryls useful as modulators of ion channels” (Vertex Pharmaceuticals Incorporated, priority 2005, dated 2010).)
